These results are taken from patent CN107531679A, “芳香酰胺类衍生物、其制备方法及其在医药上的应用” (Jiangsu Hengrui Medicine Co Ltd, priority 2016, dated 2017).

Entries after “also recorded” stand apart in the source; their conditions may differ.

In one test the target is T1, RORγ (Homo sapiens, UniProt P51449).
T1 sequence (P51449 269-508 limits assumed): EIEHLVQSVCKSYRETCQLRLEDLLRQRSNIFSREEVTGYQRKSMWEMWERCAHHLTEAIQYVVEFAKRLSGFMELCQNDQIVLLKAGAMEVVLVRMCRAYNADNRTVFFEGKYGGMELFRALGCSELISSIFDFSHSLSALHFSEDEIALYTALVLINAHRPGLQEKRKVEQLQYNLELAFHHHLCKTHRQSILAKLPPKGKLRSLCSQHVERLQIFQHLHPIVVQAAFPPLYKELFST
The test is described as follows: TR-FRET RORγ coactivator assay (LanthaScreen). The conditions noted are these: RORγ LBD.

The subject of test [1] is MC38 mouse colon tumour [MC38小鼠结肠肿瘤]. The test is described as follows: In vivo efficacy: MC38 colon tumour growth in syngeneic C57BL/6 mice. Particulars: for TGI (tumour growth inhibition rate): MC38 in C57BL/6 mice.

`CCS(=O)(=O)c1ccc(CNC(=O)c2ccc3c(c2)cc(Cc2ccc(F)cc2C(F)(F)F)n3C(C)C)cc1` [实施例4, N-(4-(乙磺酰基)苄基)-2-(4-氟-2-(三氟甲基)苄基)-1-异丙基-1H-吲哚-5-甲酰胺]: the “effect on RORγ in vitro activity (mode of modulation, in words)” value (shortened to “effect on RORγ in vitro activity”) at RORγ is recorded as “表现出激动的效果”.

For the compound `CCc1ccccc1Cc1cc2cc(C(=O)NCc3ccc(S(=O)(=O)CC)cc3)ccc2n1C(C)C` [实施例10, 2-(2-(乙基苄基)-N-(4-(乙磺酰基)苄基)-1-异丙基-1H-吲哚-5-甲酰胺], the “effect on RORγ in vitro activity” value on RORγ is reported as “表现出激动的效果”.

As to `CCS(=O)(=O)c1ccc(CNC(=O)c2ccc3c(c2)cc(Cc2ccc(C(F)(F)F)cc2F)n3C(C)C)cc1` [实施例15, N-(4-(乙磺酰基)苄基)-2-(2-氟-4-(三氟甲基)苄基)-1-异丙基-1H-吲哚-5-甲酰胺], the “effect on RORγ in vitro activity” value on RORγ was “表现出抑制的效果”.

On to `CCS(=O)(=O)c1ccc(CNC(=O)c2ccc3c(c2)cc(Cc2ccc(OC(F)(F)F)cc2)n3C(C)C)cc1` [实施例18, N-(4-(乙磺酰基)苄基)-1-异丙基-2-(4-(三氟甲氧基)苄基)-1H-吲哚-5-甲酰胺], for which, on RORγ, the “effect on RORγ in vitro activity” value is “表现出抑制的效果”.

In the case of `CCS(=O)(=O)c1ccc(CNC(=O)c2ccc3c(c2)cc(Cc2ccc(Cl)cc2C(F)(F)F)n3CCF)cc1` [实施例30, 2-(4-氯-2-(三氟甲基)苄基)-N-(4-(乙磺酰基)苄基)-1-(2-氟乙基)-1H-吲哚-5-甲酰胺], the “TGI (tumour growth inhibition rate)” value was determined as 68% in test [1] (Example 30 (12.5 mg/kg) combined with anti-mouse PD-1 monoclonal antibody (5 mg/mouse)) and 34% in test [1] (single agent, 12.5 mg/kg, twice daily, 21 days). The synergy in words entry in test [1] (Example 30 combined with PD-1 antibody, MC38 colon tumour model) is given as “较强的协同效应; also recorded: 较强的协同作用”. The “biological activity in vivo in words (RORγ activation versus inhibition)” value in test [1] (MC38 colon tumour model, conclusion of the applicant) was “具有与RORγ激活(而非抑制)一致的生物活性”. In addition, the “antitumour effect in words” value in test [1] (single agent, MC38 colon tumour model) is “表现出抑瘤活性”.

On to `CCS(=O)(=O)c1ccc(CNC(=O)c2ccc3c(c2)cc(Cc2cccc(C(F)(F)F)c2)n3C(C)C)cc1` [实施例17, N-(4-(乙磺酰基)苄基)-1-异丙基-2-(3-(三氟甲基)苄基)-1H-吲哚-5-甲酰胺], for which the “effect on RORγ in vitro activity” value at RORγ was “表现出抑制的效果”.

For `CCS(=O)(=O)c1ccc(CNC(=O)c2ccc3c(c2)cc(Cc2ccc(C(F)(F)F)cc2)n3C(C)C)cc1` [实施例14, N-(4-(乙磺酰基)苄基)-1-异丙基-2-(4-(三氟甲基)苄基)-1H-吲哚-5-甲酰胺], the “effect on RORγ in vitro activity” value at RORγ is “表现出抑制的效果”.
